Results: patent publication US12264146B2, “Rho kinase inhibitor, method for preparing same and uses thereof” (BEIJING INCREASE INNOVATIVE DRUG CO., LTD., priority 2018, dated 2025)

Tests used:
Assay type in all cases: cell-based
[1] = Toxicity test on endothelial cells EA.hy926, CCK-8 cell viability; settings: human, 1000~0.32 μmol/L, 5-fold dilution, read-out: IC50 of Test compound (cytotoxicity on EA.hy926 cells)
Method: In this test example, 31 groups, i.e., Groups 1 to 31, were set, in which Group 1 was a blank control group, Group 2 was a normal control group, Group 3 was a positive control group, and Groups 4 to 31 were test groups of the compounds of the present application. The specific test operation comprised: 100 μL of endothelial cells EA.hy926 (purchased from Suzhou Beina Chuanglian Biotechnology Co., Ltd.) with a density of 5×10^4 was added to each well of a 96-well plate, and transferred to an incubator at 37° C. with 5% CO2 and saturated humidity conditions and cultured for 24 hours, 100 μL of 2× the test compound solution prepared and diluted with DMEM medium containing 10% fetal bovine serum was added, in which the test compound added in the positive control group was Fasudil hydrochloride (purchased from Beijing Sihuan Pharmaceutical Co., Ltd., SFDA approval number H20173349) solution with different concentrations, an equal volume of DMEM medium was added in the blank control group, an equal volume of PBS buffer was added in the normal control group, and a duplicate well was set for each concentration point. After adding the test compound, the culture was continued in the incubator for 24 hours, then 20 μL of CCK-8 detection solution (purchased from Beijing Solarbio Science & Technology Co., Ltd., Cat. No. CA1210) was added to each well, interacted at 37° C. for 2.5 hours, shaken and mixed well, and then the absorbance value at 450 nm was detected.
OD values were detected, and the cell viability values of test groups of different concentrations were calculated according to the cell viability calculation formula as follows: Cell viability=(Atest group−Ablank control)/(Anormal control−Ablank control)*100%
wherein A represented absorbance value at 450 nm.
Prism6.0 was used to obtain the inhibitor concentration-viability curve and to calculate the IC50 of the test compound, the correlation coefficient R^2>0.99; the inhibitor concentration-viability curves of Fasudil hydrochloride, R-YK1601, R-YK1603, R-YK1606, R-YK1607, R-YK1610 were shown in FIGS. 1 to 6, in which the abscissa was the logarithm on base 10 of the concentration of the test compound, and the ordinate was the cell activity (i.e., cell viability).

[2] = tested on: nitric oxide (NO); assay: Synthesis and secretion of nitric oxide (NO) in EA.Hy926 endothelial cells, NO detection kit; settings: EA.Hy926 cell supernatant, 24 h
Method: (§1) Commercially available cytokine kits were used to detect the effects of the compounds of the present application on vascular endothelium-derived contracting factor endothelin, vascular endothelium-derived relaxing factor endothelial nitric oxide synthase, nitric oxide, and prostacyclin factor. The detection was performed according to the kit instructions. When testing the effect of the compound of the present application on cytokines, a normal control group, a fasudil hydrochloride group, and high-, medium- and low-dose groups of the compounds of the present application were set up for testing. The fasudil hydrochloride used in this test example was purchased from Beijing Sihuan Pharmaceutical Co., Ltd., with the SFDA approval number of H20173349. The EA.Hy926 cells used in this test example were purchased from Suzhou Beina Chuanglian Biotechnology Co., Ltd.
EA.Hy926 cells were inoculated in a 24-well plate at 5×10^5 cells/mL, 400 μL per well, and cultured adherently for 18 hours, then the supernatant was discarded, the test compound prepared in DMEM medium was added, and an equal volume of DMEM medium was added in the normal control group, then the cells was cultured for 24 h in incubator, and then the cell supernatant was collected and detected according to the instructions of NO detection kit (purchased from Beyotime Institute of Biotechnology, Cat. No. 062617171017), and the detection results were shown in Table 5.

[3] = tested on: endothelial nitric oxide synthase (eNOS); assay: Endothelial nitric oxide synthase (eNOS) in EA.Hy926 endothelial cells, detection kit; settings: EA.Hy926 cell supernatant, 24 h
Method: as §1
Detection conditions: EA.Hy926 cells were inoculated at 1×10^5 […] in a 96-well plate, 100 μL per well, and cultured adherently for 24 hours, then the test compound prepared with DMEM medium was added, the normal control group was added with an equal volume of DMEM medium, then the cells were cultured for 24 hours at 37° C., and then the cell supernatant was taken and placed in an EP tube, and centrifuged at 3000 r/min and 4° C. for 15 minutes, the resulting supernatant was transferred to a new EP tube, diluted 3 times, and detected according to the instruction of eNOs detection kit (purchased from Wuhan Elabscience Biotechnology Co., Ltd., Cat. No. AK0017OCT12013), and the detection results were shown in Table 4.

Row | SMILES | IC50 at 24 h [1] [µM] | nitric oxide secretion in endothelial cells: Detection result of test compound at low dose (0.4 μM) [2] [μm] | nitric oxide secretion in endothelial cells: Detection result of test compound at medium dose (2 μM) [2] [μm] | nitric oxide secretion in endothelial cells: Detection result of test compound at high dose (10 μM) [2] [μm] | expression of endothelial nitric oxide synthase in endothelial cells: Detection result of test compound at low dose (0.4 μM) [3] [pg/mL] | expression of endothelial nitric oxide synthase in endothelial cells: Detection result of test compound at medium dose (2 μM) [3] [pg/mL] | expression of endothelial nitric oxide synthase in endothelial cells: Detection result of test compound at high dose (10 μM) [3] [pg/mL]
1 | CCCC[C@@H]1CNCCCN1S(=O)(=O)c1cccc2c(O)nccc12 [Compound R-YK1611, (R)-5-((2-butyl-1,4-diazacycloheptan-1-yl)sulfonyl)isoquinolin-1-ol] | 284 | 1.095 ± 0.095 | 1.109 ± 0.087 | 1.125 ± 0.016 | 2652.53 ± 279.27 | 2291.59 ± 253.56 | 2195.70 ± 187.16
2 | C[C@@H]1CNCCCN1S(=O)(=O)c1cccc2c(O)ncc(Cl)c12 [Compound R-YK1606, (R)-4-chloro-5-((2-methyl-1,4-diazacycloheptan-1-yl)sulfonyl)isoquinolin-1-ol] | 181 | 1.131 ± 0.019 | 1.009 ± 0.102 | 1.158 ± 0.223 | 2974.79 ± 361.75 | 2400.67 ± 226.73 | 2286.01 ± 95.04
3 | COc1ncc(C2CC2)c2c(S(=O)(=O)N3CCCNC[C@H]3C)cccc12 [Compound R-YK1600-2, (R)-4-cyclopropyl-1-methoxy-5-((2-methyl-1,4-diazacycloheptan-1-yl)sulfonyl)isoquinoline] | 145 | 0.982 ± 0.096 | 1.037 ± 0.062 | 1.139 ± 0.263 | 2428.32 ± 287.58 | 2384.92 ± 317.27 | 2245.86 ± 224.65
4 | C[C@@H]1CNCCCN1S(=O)(=O)c1cccc2c(O)ncc(C3CC3)c12 [Compound R-YK1600-1, (R)-4-cyclopropyl-5-((2-methyl-1,4-diazacycloheptan-1-yl)sulfonyl)isoquinolin-1-ol] | 188 | 1.012 ± 0.053 | 1.099 ± 0.201 | 1.148 ± 0.251 | 2528.44 ± 267.48 | 2485.91 ± 287.57 | 2345.81 ± 213.65
5 | C[C@@H]1CNCCCN1S(=O)(=O)c1cccc2c(O)ncc(F)c12 [Compound R-YK1604, (R)-4-fluoro-5-((2-methyl-1,4-diazacycloheptan-1-yl)sulfonyl)isoquinolin-1-ol] | 210 | 1.009 ± 0.064 | 0.851 ± 0.032 | 0.829 ± 0.064 | 2932.05 ± 435.87 | 2397.93 ± 180.08 | 2229.68 ± 63.98
6 | CC(C)[C@@H]1CNCCCN1S(=O)(=O)c1cccc2c(O)nccc12 [Compound R-YK1609, (R)-5-((2-isopropyl-1,4-diazacycloheptan-1-yl)sulfonyl)isoquinolin-1-ol] | 327 | 0.978 ± 0.028 | 1.014 ± 0.051 | 1.115 ± 0.006 | 2728.44 ± 257.58 | 2375.91 ± 287.28 | 2235.87 ± 213.65
7 | C[C@@H]1CNCCCN1S(=O)(=O)c1cccc2cnccc12 [Compound R-YK1603, (R)-5-((2-methyl-1,4-diazacycloheptan-1-yl)sulfonyl)isoquinoline] | 256 | 1.207 ± 0.000 | 0.743 ± 0.070 | 0.910 ± 0.025 | 2928.44 ± 257.48 | 2385.91 ± 387.57 | 2245.94 ± 213.65
8 | COc1nccc2c(S(=O)(=O)N3CCCNC[C@H]3CCC(C)C)cccc12 [Compound R-YK1612, (R)-5-((2-isopentyl-1,4-diazacycloheptan-1-yl)sulfonyl)-1-methoxyisoquinoline] | 176 | 0.960 ± 0.134 | 1.021 ± 0.006 | 1.114 ± 0.006 | 2776.58 ± 261.27 | 2456.67 ± 226.85 | 2286.671 ± 195.06
9 | O=S(=O)(c1cccc2cnccc12)N1CCCNC[C@H]1C1CC1 [Compound R-YK1608, (R)-5-((2-cyclopropyl-1,4-diazacycloheptan-1-yl)sulfonyl)isoquinoline] | 165 | 0.918 ± 0.008 | 0.984 ± 0.042 | 1.105 ± 0.007 | 2697.85 ± 284.81 | 2344.00 ± 293.66 | 2269.45 ± 134.54
